Source: patent US20230015823A1, “METHODS OF ADMINISTERING VOXELOTOR” (Global Blood Therapeutics, Inc., priority 2019, published 2023)

Molecular target: CYP3A4 (Homo sapiens, UniProt P08684)
Assay: Effect of voxelotor on PK of CYP3A4 probe substrate midazolam in healthy subjects
Settings: healthy subjects
Procedure: During Period 1, subjects received a single dose of caffeine 100 mg, warfarin sodium 10 mg+vitamin K 10 mg, omeprazole 20 mg, and midazolam hydrochloride 2 mg on Day 1. During Period 2, subjects received voxelotor 900 mg QD on Days 1 and 2 followed by 600 mg QD on Day 3, a single dose of caffeine 100 mg, warfarin sodium 10 mg+vitamin K 10 mg, omeprazole 20 mg, and midazolam hydrochloride 2 mg on Day 4, and voxelotor 600 mg QD on Days 4 through 7.
Whole blood and plasma concentrations of voxelotor and plasma concentrations of caffeine, paraxanthine, S-warfarin, omeprazole, 5-hydroxyomeprazole, midazolam, and 1-hydroxymidazolam were determined using validated assays.

Sequence of CYP3A4 (P08684 whole entry): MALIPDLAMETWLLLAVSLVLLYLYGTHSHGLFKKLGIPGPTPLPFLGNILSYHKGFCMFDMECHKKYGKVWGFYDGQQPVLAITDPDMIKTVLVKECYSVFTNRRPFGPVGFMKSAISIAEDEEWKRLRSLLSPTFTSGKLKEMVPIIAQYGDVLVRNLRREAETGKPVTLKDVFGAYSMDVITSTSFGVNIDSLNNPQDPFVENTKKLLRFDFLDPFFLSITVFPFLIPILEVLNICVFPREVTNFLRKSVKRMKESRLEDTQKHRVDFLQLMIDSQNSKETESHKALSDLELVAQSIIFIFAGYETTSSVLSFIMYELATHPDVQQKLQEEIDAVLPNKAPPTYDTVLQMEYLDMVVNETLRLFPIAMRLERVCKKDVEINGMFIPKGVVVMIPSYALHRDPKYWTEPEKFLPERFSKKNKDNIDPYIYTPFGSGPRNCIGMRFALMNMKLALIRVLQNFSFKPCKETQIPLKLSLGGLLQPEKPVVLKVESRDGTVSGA

SMILES | increase of overall exposure of metabolite in the presence of voxelotor (midazolam metabolite, voxelotor 900/600 mg QD) [%] | observed exposure increase with voxelotor (CYP3A4 substrate midazolam) [fold] | increase of overall exposure in the presence of voxelotor (midazolam hydrochloride 2 mg single dose, voxelotor 900/600 mg QD) [%]
OCc1ncc2n1-c1ccc(Cl)cc1C(c1ccccc1F)=NC2 [1′-hydroxy-midazolam] | 75 | – | –
Cc1ncc2n1-c1ccc(Cl)cc1C(c1ccccc1F)=NC2 [midazolam] | – | 1.6 | 63
